US20230355599A1, “BIOMARKERS FOR CBL, AND COMPOSITIONS AND METHODS FOR THEIR USE” (NURIX THERAPEUTICS, INC., priority 2022, published 2023)

Columns and labels:
pY525/pY526/pY348-SYK = experiment: Phosphoprotein screen in human whole blood with CBL inhibitor at 10 uM: SYK; type: cell-based; conditions: 1 hr 37° C., human whole blood 8 donors, anti-CD3/CD28 + crosslinker 60 minutes
Protocol: (§1) To identify proximal biomarkers of CBL-B inhibition in immune cells, a panel of phosphorylated proteins were screened in human whole blood incubated with CBL-B inhibitor and concomitant anti-CD3 and anti-CD28 antibodies. The effect of CBL-B inhibition was assessed across multiple cellular signaling networks.
(§2) Human heparinized whole blood from 8 donors was received after an overnight shipment at 4° C. The blood was plated, treated with CBL inhibitor at 10 uM and incubated at 37° C. for 60 minutes. After incubation, the cells were stimulated with anti-CD3/CD28 followed by a cross-linking antibody (30 μg of goat anti-mouse IgG (H+L) antibody (Invitrogen)). After 60 minutes, the cells were fixed, and stained using surface markers for T cells (CD3^+CD4^+& CD3^+CD8^+) and analyzed by flow cytometry for target phosphorylation of the following markers: pY180/pY511-ITK, pY397-HS1, pY759-PLCg2, pY783-PLCg1, pY525/pY526/pY348-SYK & pY319-Zap70.
(§3) Fold change of each biomarker was calculated with the following example equation: […]
(§4) Whole blood from eight human donors was collected in sodium heparin anti-coagulant treated with 10 μM of Compound 23 for 1 hr at 37° C. […] Fold change of % phosphorylation normalized to DMSO was quantitated in T cells (CD8^+) using flow cytometry is provided in FIGS. 6A-6B.

phosphorylated HS1 = experiment: Phosphorylated HS1 in circulating CD8+ T cells after oral dosing of cynomolgus monkeys (flow cytometry, ex vivo anti-CD3/CD28 stimulation)
Protocol: To assess these proximal biomarkers of Cbl-b inhibition on CD8^+ T cells, pharmacodynamic analysis was performed in conjunction with a pharmacokinetic study conducted at Charles River Laboratories. Circulating blood was obtained from cynomolgus monkeys treated with 0.3, 1, 3 or 10 mg/kg of Compound 23 after a single dose and after 3 doses. The response to Cbl-b inhibition on proximal biomarkers (pHS1, pPLCγ2, and pZAP70) was measured in CD8^+ T cells using flow cytometry. This technique is highly quantitative and can measure multiple phosphorylation markers in different cell populations within the same sample.
Compound 23 was formulated in vehicle (0.2% Tween 80 in DI water+1 eq HCL) and aliquoted into individual (not serially diluted) dosing solutions of 0.3, 1, 3 and 10 mg/mL by stirring for 5-10 min, vortexing, and sonicating again as necessary to produce an even suspension that was stirred constantly at 4° C. to achieve and maintain a homogenous suspension. To prepare vehicle, 0.2% Tween 80 in deionized (DI) water, water was measured into a beaker with continuous stirring. Tween 80 was added sequentially, and stirring continued until the solution dissolved; the solution was stored at 2-8° C.
For pharmacodynamic analysis, whole blood was obtained from cynomolgus monkeys and used for flow cytometry assays to evaluate phosphorylated biomarkers, pHS1, pPLCγ2, and pZAP70, in circulating CD8^+ T cells.
On the day of dosing, blood samples were collected via femoral venipuncture in accordance with test facility standard operating procedures. 1 mL/tube of whole blood was collected pre-dose (time 0) and at 0.5, 1, 2, 4, 6, and 24 hours post-dose and added into 2 types of TruCulture tubes (Myriad) for pharmacodynamic analysis. One tube contained media alone and is denoted as “Null”, and the second tube contained 2 μg/mL anti-CD3 and anti-CD28, which were prepared at Nurix prior to the study using cynomolgus specific anti-CD3 (BD Biosciences; SP34-2) and anti-CD28 (Bio X cell; CD28.2) and denoted as “CD3/CD28”. Tubes were shipped by overnight courier on cold pack the day of collection and analyzed for phosphorylated biomarkers of Cbl-b inhibition by flow cytometry.
Following PD collection, upon receipt of TruCulture tubes, each tube was inverted 5-6 times to ensure a mixed suspension of blood. 30 μg of goat anti-mouse IgG (H+L) antibody (Invitrogen) was added to cross-link the stimulation antibodies and induce synchronized cellular stimulation. Cells were stimulated for 60 minutes alongside non-stimulated controls for each time point.
All buffers (Phosflow Lyse/Fix Buffer 5×, Phosflow Perm Buffer I; BD Biosciences) were prepared according to the manufacturer's instructions. After 60 minutes of goat anti-mouse IgG (H+L) antibody stimulation, one volume of blood was mixed with 20 volumes of pre-warmed BD Phosflow Lyse/Fix Buffer (1×) by repeated pipetting (8-10 times), then incubated in a 37° C. water bath for 10 min. Cells were washed and centrifuged at 500×g for 5 min (2×) with PBS. Following centrifugation, cell pellets were resuspended in cold BD Phosflow Perm Buffer I (BD) and incubated at 4° C. for 20 min. […]

pY180/pY511-ITK = experiment: Phosphoprotein screen in human whole blood with CBL inhibitor at 10 uM: ITK; type: cell-based; conditions: 1 hr 37° C., human whole blood 8 donors, anti-CD3/CD28 + crosslinker 60 minutes
Protocol: as §1, §2, §3, §4

pY319-Zap70 = experiment: Phosphoprotein screen in human whole blood with CBL inhibitor at 10 uM: ZAP70; type: cell-based; conditions: 1 hr 37° C., human whole blood 8 donors, anti-CD3/CD28 + crosslinker 60 minutes
Protocol: as §1, §2, §3, §4

A20 lymphoma tumor model = experiment: A20 lymphoma tumor model, anti-tumor activity; type: in vivo, mouse; conditions: dosed at 10, 30 or 60 mg/kg
Text: An elevated percentage of pHS1+CD8+ T cells correlated with potent anti-tumor effects in mouse syngeneic tumor models and defined a biomarker therapeutic range. At this therapeutic range, approximately 50% proximal biomarker pHS1 correlates with the efficacious range.

## C[C@H]1CCCN(Cc2cc3c(c(C(F)(F)F)c2)CN(c2cccc([C@]4(c5nncn5C)C[C@@H](C)C4)c2)C3=O)C1 [Compound 23]
pY525/pY526/pY348-SYK
  increased phosphorylation of SYK compared to DMSO control: 2-3 fold
Phosphorylated HS1; multiple doses of 10 mg/kg, 3 days of daily oral dosing
  phosphorylated HS1 in comparison to baseline: significant increases
Phosphorylated HS1; multiple doses of 10 mg/kg, 4 hours post dose
  time of peak increase of phosphorylated HS1: 76 h
Phosphorylated HS1; single dose oral 10 mg/kg
  time of maximal signal, phosphorylated HS1: 2 hours post dose
Phosphorylated HS1; single dose oral 10 mg/kg, after 24 hours
  phosphorylated HS1 sustained after 24 hours: significant increase
Phosphorylated HS1; single dose oral 10 mg/kg, circulating CD8+ T cells, anti-CD3/CD28 stimulated
  phosphorylated HS1 in comparison to baseline: significant increases
pY180/pY511-ITK
  increased phosphorylation of ITK compared to DMSO control: 3-4 fold
pY319-Zap70
  increased phosphorylation of ZAP70 compared to DMSO control: 2-3 fold
A20 lymphoma tumor model
  median survival time compared to the vehicle control: prolonged median survival time
  tumor size compared to the vehicle control: significantly smaller tumors
